This is an account of results in US6448405B1, “Steroid receptor modulator compounds and methods” (Ligand Pharmaceuticals Incorporated, priority 1994, dated 2002).

One assay concerns the target T1, human PR-B (Homo sapiens, UniProt P06401).
T1 construct: expressed in transfected cells; host or cells: CV-1 cells (African green monkey kidney fibroblasts), transient transfection
T1 sequence (P06401 1-933): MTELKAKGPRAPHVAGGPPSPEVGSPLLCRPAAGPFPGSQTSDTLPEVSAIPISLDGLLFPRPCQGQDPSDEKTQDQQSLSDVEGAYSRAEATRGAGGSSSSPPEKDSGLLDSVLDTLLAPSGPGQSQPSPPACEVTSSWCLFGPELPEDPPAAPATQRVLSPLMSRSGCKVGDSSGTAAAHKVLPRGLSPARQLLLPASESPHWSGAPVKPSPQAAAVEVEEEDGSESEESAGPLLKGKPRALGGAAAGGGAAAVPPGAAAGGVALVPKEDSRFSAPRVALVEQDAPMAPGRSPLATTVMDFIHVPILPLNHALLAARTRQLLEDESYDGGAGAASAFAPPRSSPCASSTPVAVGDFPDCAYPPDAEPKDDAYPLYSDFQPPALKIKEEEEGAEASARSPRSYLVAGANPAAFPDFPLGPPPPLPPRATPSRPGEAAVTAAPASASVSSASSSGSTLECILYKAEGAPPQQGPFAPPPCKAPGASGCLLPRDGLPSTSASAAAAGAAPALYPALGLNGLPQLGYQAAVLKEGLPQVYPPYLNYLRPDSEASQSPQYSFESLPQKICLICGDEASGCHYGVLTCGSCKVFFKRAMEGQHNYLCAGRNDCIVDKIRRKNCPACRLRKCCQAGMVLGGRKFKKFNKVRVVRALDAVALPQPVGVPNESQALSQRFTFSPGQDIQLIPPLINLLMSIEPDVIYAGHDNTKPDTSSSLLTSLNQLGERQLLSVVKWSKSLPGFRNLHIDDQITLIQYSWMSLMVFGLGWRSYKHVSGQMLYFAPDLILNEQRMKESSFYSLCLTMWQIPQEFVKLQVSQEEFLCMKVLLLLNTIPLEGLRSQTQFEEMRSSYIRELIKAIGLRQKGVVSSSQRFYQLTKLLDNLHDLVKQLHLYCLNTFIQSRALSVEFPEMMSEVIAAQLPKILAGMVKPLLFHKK
Briefly: Co-transfection assay, PR agonist and antagonist activity, CV-1 cells.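 As to all read-outs here: luciferase reporter driven by a hormone response element, co-transfected with human PR-B into CV-1 monkey kidney cells, agonists raise and antagonists lower the reporter signal.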 The class given is cell-based. Conditions: for IC50: read-out: PR Antagonist CV-1 Cells Potency.

In a further assay the test system is PR, AR, ER, GR and MR. Briefly: cis-trans or co-transfection assay, steroid receptor panel (cross-reactivity). The class given is cell-based, human. Conditions: as seen in the Tables.
Assay [1] has as its target T2, human progesterone receptor A form (PR-A) (Homo sapiens, UniProt P06401).
T2 sequence (P06401 1-769 isoform P06401-2): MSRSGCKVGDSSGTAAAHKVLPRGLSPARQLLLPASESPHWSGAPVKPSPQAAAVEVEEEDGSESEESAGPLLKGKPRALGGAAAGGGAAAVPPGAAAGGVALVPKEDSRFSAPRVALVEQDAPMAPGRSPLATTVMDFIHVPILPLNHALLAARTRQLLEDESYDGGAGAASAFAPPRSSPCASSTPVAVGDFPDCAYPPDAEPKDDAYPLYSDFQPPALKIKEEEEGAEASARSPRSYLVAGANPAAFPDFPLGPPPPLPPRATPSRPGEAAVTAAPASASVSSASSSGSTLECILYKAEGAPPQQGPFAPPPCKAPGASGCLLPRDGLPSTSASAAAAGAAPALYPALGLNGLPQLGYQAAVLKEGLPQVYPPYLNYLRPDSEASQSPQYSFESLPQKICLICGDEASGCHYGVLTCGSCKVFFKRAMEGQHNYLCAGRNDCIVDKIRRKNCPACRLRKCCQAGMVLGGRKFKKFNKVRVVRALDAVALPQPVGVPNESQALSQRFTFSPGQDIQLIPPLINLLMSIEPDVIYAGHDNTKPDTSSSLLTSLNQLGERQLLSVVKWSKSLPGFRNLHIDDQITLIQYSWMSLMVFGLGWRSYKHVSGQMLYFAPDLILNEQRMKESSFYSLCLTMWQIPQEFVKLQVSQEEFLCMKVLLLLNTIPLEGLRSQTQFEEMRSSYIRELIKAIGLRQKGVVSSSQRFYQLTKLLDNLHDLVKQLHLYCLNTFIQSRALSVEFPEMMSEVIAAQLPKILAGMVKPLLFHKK
Briefly: PR binding assay, baculovirus extract, [3H] progesterone.

The subject of assay [2] is uterine wet weight in ovariectomized Sprague-Dawely rats. Briefly: Uterine wet weight assay (PR agonists). The class given is in vivo, rat. Conditions: for effect on uterine wet weight when co-administered with estrone: MPA and Compound 210 at 0.3, 1.0 and 3.0 mg/rat, Compound 163 at 3 mg/rat. From the text:
The effectiveness of selected compounds of the present invention as PR agonists was investigated in the well recognized uterine wet weight assay, as described in G. J. Marcus, “Mitosis in the rat uterus during the estrous cycle, early pregnancy and early pseudopregnancy”, 10 Biol. Reprod., 447 (1974), S. […] J. Obstet. […] I. Dorfman, “Estrogens” (Ch. 2) and “Antiestrogens” (Ch. 3). in Methods in Hormone Research, ed. R. I. Dorfman, Academic Press, New York, New York, pp101-130 (1969), the disclosures of which are herein incorporated by reference. Four to five week old, ovariectomized, Sprague-Dawely rats (Harlan-Sprague-Dawely, Indianapolis, Ind.) were obtained 1 week after surgery and allowed to acclimate for an additional week after shipment. […] Louis, Mo.) a synthetic estrogen agonist, were fully dissolved in purified sesame oil (Croda, Parsippany, N.J.). […] Additional control groups of rats were administered estrone or vehicle (i.e. sesame oil) alone. Animals were sacrificed on the fourth day of the experiment.

In the next assay the target is T3, human AR (Homo sapiens, UniProt P10275).
T3 construct: expressed in transfected cells; host or cells: COS-1 cells, transient transfection
T3 sequence (P10275 1-920): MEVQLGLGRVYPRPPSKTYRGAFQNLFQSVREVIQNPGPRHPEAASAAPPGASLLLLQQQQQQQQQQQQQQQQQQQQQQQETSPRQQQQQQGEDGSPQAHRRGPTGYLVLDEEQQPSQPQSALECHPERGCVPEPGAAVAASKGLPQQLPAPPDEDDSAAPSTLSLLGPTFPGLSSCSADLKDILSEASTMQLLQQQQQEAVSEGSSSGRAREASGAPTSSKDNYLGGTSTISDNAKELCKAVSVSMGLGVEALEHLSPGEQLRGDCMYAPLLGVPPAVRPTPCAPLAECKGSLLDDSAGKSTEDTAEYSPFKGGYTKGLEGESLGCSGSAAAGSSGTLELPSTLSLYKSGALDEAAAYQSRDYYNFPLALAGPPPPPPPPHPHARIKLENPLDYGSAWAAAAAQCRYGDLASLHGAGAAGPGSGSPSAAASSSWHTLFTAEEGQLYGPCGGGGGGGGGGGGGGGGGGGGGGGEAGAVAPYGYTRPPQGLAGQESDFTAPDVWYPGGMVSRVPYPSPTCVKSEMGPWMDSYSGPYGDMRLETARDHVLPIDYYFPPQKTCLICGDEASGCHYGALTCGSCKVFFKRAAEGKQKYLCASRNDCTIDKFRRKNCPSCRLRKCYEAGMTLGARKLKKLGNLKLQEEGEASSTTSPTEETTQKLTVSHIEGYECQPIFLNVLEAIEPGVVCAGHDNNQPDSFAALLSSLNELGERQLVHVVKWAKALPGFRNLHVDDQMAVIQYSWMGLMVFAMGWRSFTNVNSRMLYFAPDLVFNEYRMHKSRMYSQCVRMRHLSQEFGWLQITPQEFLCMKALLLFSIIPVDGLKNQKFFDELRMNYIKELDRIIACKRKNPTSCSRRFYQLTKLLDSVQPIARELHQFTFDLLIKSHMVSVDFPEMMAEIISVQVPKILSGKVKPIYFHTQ
Briefly: AR whole cell binding assay, transfected COS-1 cells, 3H-DHT.

Assay [3] addresses T4, human androgen receptor (AR) (Homo sapiens, UniProt P10275).
T4 construct: expressed in transfected cells; host or cells: CV-1 cells, transient transfection
T4 sequence (P10275 1-920): T3 sequence (P10275 1-920)
The assay is described as follows: Co-transfection assay, AR agonist and antagonist activity, CV-1 cells (pRShAR). Format: cell-based. The following applies: for AR Agonist CV-1 Cells Efficacy (%): relative to DHT; for AR Antagonist CV-1 Cells Efficacy (%): % maximal inhibition.

[4] abbreviates: agonist mode, EC50, read-out: PR Agonist CV-1 Cells Potency.

SMILES strings stand for the structures. Read-outs that look alike come from different tables or passages of the source.

As to `CC1=CC(C)(C)Nc2ccc3c(c21)C(c1ccc(Cl)cc1)Oc1ccccc1-3` (racemic) [Compound 163, (R/S)-5-(4-Chlorophenyl)-1,2-dihydro-2,2,4-trimethyl-5H-chromeno[3,4-f]quinoline], at human PR-B (setting [4]), the EC50 worked out at 0.015 µM. Besides, the IC50 on human PR-B worked out at 3.62 µM. For the same molecule, the “steroid receptor selectivity profile” value in the assay on PR, AR, ER, GR and MR is “highly selective PR agonists”. Moreover, the inhibitory constant (Ki) in assay [1] (read-out: PR Binding Ki) was determined as 0.001 µM. Moreover, the “effect on uterine wet weight when co-administered with estrone” value in assay [2] was “decreased by approximately half”.

With `CC1=CC(C)(C)Nc2ccc3c(c21)C(c1cccc(F)c1)Oc1ccccc1-3` (racemic) [Compound 191, (R/S)-5-(3-Fluorophenyl)-1,2-dihydro-2,2,4-trimethyl-5H-chromeno[3,4-f]quinoline], on human PR-B (setting [4]), the EC50 came out at 0.009 µM. For the same molecule, at human PR-B, the IC50 came to 0.15 µM. The “steroid receptor selectivity profile” value with PR, AR, ER, GR and MR is recorded as “highly selective PR agonists”. The Ki in assay [1] (read-out: PR Binding Ki) was 0.001 µM.

Consider `CC1CC(C)(C)Nc2cc3oc(=O)cc(-c4ccoc4)c3cc21` (racemic) [Compound 405, (R/S)-5-(3-Furyl)-1,2,3,4-tetrahydro-2,2,4-trimethyl-8-pyranono[5,6-g]quinoline], for which the Ki at human AR is 0.006 µM. Further, the EC50 was more than 10 µM in assay [3] and more than 10 µM in assay [3] (read-out: AR Agonist CV-1 Cells Potency, agonist mode, EC50). In assay [3], this molecule showed an IC50 of 0.077 µM. For the same molecule, the “AR Agonist CV-1 Cells Efficacy (%)” value is “na (na = not active (i.e. efficacy of <20 and potency of >10,000))” in assay [3] (Table 2, agonist mode); “na (na = not active (i.e. efficacy of <20 and potency of >10,000))” in assay [3] (agonist mode). The “AR Antagonist CV-1 Cells Efficacy (%)” value in assay [3] (Table 2, antagonist mode) was 89%.

As for `CCC1CCNc2cc3oc(=O)cc(C(F)(F)F)c3cc21` (racemic) [Compound 414, (R/S)-4-Ethyl-1,2,3,4-tetrahydro-6-trifluoromethyl-8-pyranono[5,6-g]quinoline], the Ki on human AR was determined as 0.0003 µM. The same molecule gave an EC50 in assay [3] of 0.001 µM. For the same molecule, the IC50 in assay [3] was more than 10 µM; in assay [3] (read-out: AR Antagonist CV-1 Cells Potency, Table 2, antagonist mode, IC50), more than 10 µM. In assay [3] (Table 2, agonist mode), the “AR Agonist CV-1 Cells Efficacy (%)” value was 118%. Besides, the “AR Antagonist CV-1 Cells Efficacy (%)” value was “na (na = not active (i.e. efficacy of <20 and potency of >10,000))” in assay [3] (Table 2, antagonist mode); “na (na = not active (i.e. efficacy of <20 and potency of >10,000))” in assay [3] (antagonist mode, DHT at its EC50).

Turning to `CC1CC(C)(C)Nc2ccc(-c3cc(F)cc(C#N)c3)cc21` (racemic) [Compound 455, (R/S)-6-(3-Cyano-5-Fluorophenyl)-1,2,3,4-Tetrahydro-2,2,4-trimethylquinoline], on human PR-B, the “PR Agonist CV-1 Cells Efficacy (%)” value was “na (na = not active (i.e. efficacy or <20 and potency of >10,000))”; the “PR Antagonist CV-1 Cells Efficacy (%)” value turned out to be 76%; the IC50 was 0.035 µM. Moreover, at human PR-B (setting [4]), the EC50 was more than 10 µM. For the same molecule, in the assay with PR, AR, ER, GR and MR, the “steroid receptor selectivity profile” value is “highly selective PR antagonists”. Also, the Ki in assay [1] (read-out: PR Binding Ki) was 0.01 µM.

With `CC1=CC(C)(C)Nc2cc3c(cc21)-c1ccc(F)cc1C3` [Compound 124, 8-Fluoro-1,2-dihydro-2,2,4-trimethylindeno[1,2-g]quinoline], on human PR-B, the EC50 was found to be 1.6 µM. Besides, the “PR Agonist CV-1 Cells Efficacy (%)” value on human PR-B (agonist mode, percent maximal response relative to reference agonist progesterone) is recorded as 74%. In addition, at human PR-B (antagonist mode, progesterone at its EC50, % maximal inhibition), the “PR Antagonist CV-1 Cells Efficacy (%)” value is 36%. In addition, the IC50 on human PR-B (antagonist mode, progesterone at its EC50, IC50) came out at 0.01 µM. Moreover, in the assay on PR, AR, ER, GR and MR, the “steroid receptor selectivity profile” value was “highly selective PR antagonists”. The affinity in assay [1] corresponds to a Ki of 0.004 µM.

Consider `CC1=CC(C)(C)Nc2ccc3c(c21)/C(=C/c1ccccc1C)Oc1ccc(F)cc1-3` [Compound 374, (Z)-9-Fluoro-1,2-dihydro-2,2,4-trimethyl-5-(2-methylbenzylidene)-5H-chromeno[3,4-f]quinoline], for which, on human PR-B, the “PR Agonist CV-1 Cells Efficacy (%)” value came to 231%; the “PR Antagonist CV-1 Cells Efficacy (%)” value is “na (na = not active (i.e. efficacy or <20 and potency of >10,000))”; the IC50 is more than 10 µM. In addition, the EC50 at human PR-B (setting [4]) is 0.004 µM. Further, the “steroid receptor selectivity profile” value in the assay with PR, AR, ER, GR and MR is recorded as “highly selective PR agonists”. In assay [1], this molecule showed a Ki of 0.0005 µM.

For the molecule `CC(=O)O[C@]1(C(C)=O)CC[C@H]2[C@@H]3C[C@H](C)C4=CC(=O)CC[C@]4(C)[C@H]3CC[C@@]21C` [MPA, medroxyprogesterone acetate, reference compound], the figures for the “Mean Uterine Wet Weight” value in assay [2] (0.3 mg/rat oral once a day for three days + E1 10 μg), in assay [2] (1.0 mg/rat oral once a day for three days + E1 10 μg) and in assay [2] (3.0 mg/rat oral once a day for three days + E1 10 μg) were 140 mg, 130 mg and 130 mg, respectively. Moreover, the “effect on uterine wet weight when co-administered with estrone” value in assay [2] was “significantly decreased”.

A word on the Ki: it is a dissociation constant, usually derived from enzyme kinetics or from competition with a known ligand.
